According to BigSolDB 2.1:

C=CC(=O)NC(C)(C)CC(C)=O
Conditions	solubility (mole fraction)
in 2-butanone, 272.05 K	0.229
in 2-butanone, 278.25 K	0.276
in 2-butanone, 283.25 K	0.321
in 2-butanone, 288.45 K	0.373
in 2-butanone, 293.35 K	0.424
in 2-butanone, 298.15 K	0.484
in 2-butanone, 303.25 K	0.551
in 2-butanone, 308.15 K	0.623
in 2-butanone, 313.15 K	0.704
in 2-butanone, 318.15 K	0.79
in 2-butanone, 323.15 K	0.88
in 2-pentanone, 272.05 K	0.2
in 2-pentanone, 278.25 K	0.245
in 2-pentanone, 283.25 K	0.285
in 2-pentanone, 288.45 K	0.334
in 2-pentanone, 293.35 K	0.385
in 2-pentanone, 298.15 K	0.442
in 2-pentanone, 303.25 K	0.509
in 2-pentanone, 308.15 K	0.581
in 2-pentanone, 313.15 K	0.658
in 2-pentanone, 318.15 K	0.747
in 2-pentanone, 323.15 K	0.844
in acetone, 272.05 K	0.207
in acetone, 278.25 K	0.252
in acetone, 283.25 K	0.294
in acetone, 288.45 K	0.342
in acetone, 293.35 K	0.394
in acetone, 298.15 K	0.45
in acetone, 303.25 K	0.515
in acetone, 308.15 K	0.584
in acetone, 313.15 K	0.66
in acetone, 318.15 K	0.746
in acetone, 323.15 K	0.839
in ethanol, 272.15 K	0.186
in ethanol, 278.25 K	0.231
in ethanol, 283.15 K	0.271
in ethanol, 288.15 K	0.318
in ethanol, 293.35 K	0.374
in ethanol, 297.65 K	0.427
in ethanol, 303.15 K	0.5
in ethanol, 308.15 K	0.576
in ethanol, 313.65 K	0.671
in ethanol, 318.85 K	0.767
in ethanol, 323.65 K	0.867
in ethyl acetate, 272.05 K	0.166
in ethyl acetate, 278.25 K	0.208
in ethyl acetate, 283.25 K	0.249
in ethyl acetate, 288.45 K	0.299
in ethyl acetate, 293.35 K	0.351
in ethyl acetate, 298.15 K	0.411
in ethyl acetate, 303.25 K	0.481
in ethyl acetate, 308.15 K	0.558
in ethyl acetate, 313.15 K	0.645
in ethyl acetate, 318.15 K	0.745
in ethyl acetate, 323.15 K	0.85
in ethyl formate, 272.05 K	0.186
in ethyl formate, 278.25 K	0.23
in ethyl formate, 283.25 K	0.271
in ethyl formate, 288.45 K	0.321
in ethyl formate, 293.35 K	0.376
in ethyl formate, 298.15 K	0.435
in ethyl formate, 303.25 K	0.506
in ethyl formate, 308.15 K	0.575
in ethyl formate, 313.15 K	0.659
in ethyl formate, 318.15 K	0.754
in ethyl formate, 323.15 K	0.859
in isobutanol, 272.05 K	0.212
in isobutanol, 278.25 K	0.258
in isobutanol, 283.25 K	0.301
in isobutanol, 288.45 K	0.351
in isobutanol, 293.35 K	0.403
in isobutanol, 298.15 K	0.462
in isobutanol, 303.25 K	0.529
in isobutanol, 308.15 K	0.601
in isobutanol, 313.15 K	0.68
in isobutanol, 318.15 K	0.767
in isobutanol, 323.15 K	0.866
in isopentanol, 272.15 K	0.154
in isopentanol, 278.25 K	0.197
in isopentanol, 283.15 K	0.24
in isopentanol, 288.15 K	0.29
in isopentanol, 293.35 K	0.352
in isopentanol, 297.65 K	0.411
in isopentanol, 303.15 K	0.495
in isopentanol, 308.15 K	0.585
in isopentanol, 313.65 K	0.7
in isopentanol, 318.85 K	0.82
in isopentanol, 323.65 K	0.955
in isopropanol, 272.15 K	0.155
in isopropanol, 278.25 K	0.197
in isopropanol, 283.15 K	0.238
in isopropanol, 288.15 K	0.286
in isopropanol, 293.35 K	0.343
in isopropanol, 297.65 K	0.398
in isopropanol, 303.15 K	0.479
in isopropanol, 308.15 K	0.562
in isopropanol, 313.65 K	0.667
in isopropanol, 318.85 K	0.777
in isopropanol, 323.65 K	0.898
in methanol, 272.15 K	0.241
in methanol, 278.25 K	0.287
in methanol, 283.15 K	0.327
in methanol, 288.15 K	0.371
in methanol, 293.35 K	0.422
in methanol, 297.65 K	0.468
in methanol, 303.15 K	0.531
in methanol, 308.15 K	0.594
in methanol, 313.65 K	0.667
in methanol, 318.85 K	0.746
in methanol, 323.65 K	0.823
in methyl acetate, 272.05 K	0.206
in methyl acetate, 278.25 K	0.253
in methyl acetate, 283.25 K	0.294
in methyl acetate, 288.45 K	0.343
in methyl acetate, 293.35 K	0.399
in methyl acetate, 298.15 K	0.455
in methyl acetate, 303.25 K	0.526
in methyl acetate, 308.15 K	0.6
in methyl acetate, 313.15 K	0.68
in methyl acetate, 318.15 K	0.769
in methyl acetate, 323.15 K	0.869
in n-butanol, 272.15 K	0.169
in n-butanol, 278.25 K	0.213
in n-butanol, 283.15 K	0.253
in n-butanol, 288.15 K	0.303
in n-butanol, 293.35 K	0.362
in n-butanol, 297.65 K	0.417
in n-butanol, 303.15 K	0.496
in n-butanol, 308.15 K	0.579
in n-butanol, 313.65 K	0.681
in n-butanol, 318.85 K	0.793
in n-butanol, 323.65 K	0.908
in n-hexanol, 272.15 K	0.151
in n-hexanol, 278.25 K	0.194
in n-hexanol, 283.15 K	0.236
in n-hexanol, 288.15 K	0.286
in n-hexanol, 293.35 K	0.346
in n-hexanol, 297.65 K	0.406
in n-hexanol, 303.15 K	0.491
in n-hexanol, 308.15 K	0.581
in n-hexanol, 313.65 K	0.696
in n-hexanol, 318.85 K	0.82
in n-hexanol, 323.65 K	0.953
in n-pentanol, 272.15 K	0.148
in n-pentanol, 278.25 K	0.189
in n-pentanol, 283.15 K	0.229
in n-pentanol, 288.15 K	0.276
in n-pentanol, 293.35 K	0.336
in n-pentanol, 297.65 K	0.391
in n-pentanol, 303.15 K	0.469
in n-pentanol, 308.15 K	0.553
in n-pentanol, 313.65 K	0.66
in n-pentanol, 318.85 K	0.775
in n-pentanol, 323.65 K	0.896
in n-propanol, 272.15 K	0.18
in n-propanol, 278.25 K	0.226
in n-propanol, 283.15 K	0.269
in n-propanol, 288.15 K	0.32
in n-propanol, 293.35 K	0.381
in n-propanol, 297.65 K	0.437
in n-propanol, 303.15 K	0.52
in n-propanol, 308.15 K	0.605
in n-propanol, 313.65 K	0.71
in n-propanol, 318.85 K	0.819
in n-propanol, 323.65 K	0.937
